Measured values from patent US20120065187A1 (ALCON RESEARCH, LTD, priority 2008, published 2012).

What was measured:
human H4 = target: T1, human H4 (Homo sapiens, UniProt Q9H3N8); test: In vitro histamine receptor cell-based assay (aequorin bioluminescence), H4 antagonism; settings: CHO-K1 cells expressing human H4, aequorin and Gα16; histamine at EC80; read-out: H4 Antagonist EC50
T1 construct: host or cells: CHO-K1
In short: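 CHO-K1 cells stably expressing human H4, Gα16 and mitochondrial aequorin, loaded with 5 μM coelenterazine-h, preincubated 15 min at room temperature with compound, then challenged with histamine at EC80.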

human H1 = target: T2, human H1 (Homo sapiens, UniProt P35367); test: In vitro histamine receptor cell-based assay (aequorin bioluminescence), H1 antagonism; settings: CHO-K1 cells expressing human H1 and aequorin; histamine at EC80; read-out: H1 Antagonist EC50
T2 construct: host or cells: CHO-K1
T2 sequence (P35367 whole entry): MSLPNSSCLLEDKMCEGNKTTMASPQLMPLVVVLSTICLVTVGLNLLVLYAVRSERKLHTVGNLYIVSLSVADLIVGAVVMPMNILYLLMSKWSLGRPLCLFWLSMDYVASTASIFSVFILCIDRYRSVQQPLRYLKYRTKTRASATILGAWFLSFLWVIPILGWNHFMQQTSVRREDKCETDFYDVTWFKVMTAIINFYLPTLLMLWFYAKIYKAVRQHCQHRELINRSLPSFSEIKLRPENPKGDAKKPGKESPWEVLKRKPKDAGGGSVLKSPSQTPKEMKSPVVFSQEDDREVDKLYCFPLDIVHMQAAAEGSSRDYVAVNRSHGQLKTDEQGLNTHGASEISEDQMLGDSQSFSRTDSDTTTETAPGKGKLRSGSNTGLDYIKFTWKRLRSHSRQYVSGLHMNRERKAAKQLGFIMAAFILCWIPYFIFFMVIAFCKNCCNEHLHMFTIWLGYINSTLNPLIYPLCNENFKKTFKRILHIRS
In short: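 Stable CHO-K1 lines expressing human H1 or H4 (H4 with Gα16) plus mitochondrial aequorin, loaded 4 h with 5 μM coelenterazine-h at ~21 °C. Compounds preincubated 15 min, then histamine at EC80 added; bioluminescence decrease (AUC or max–min) expressed as % of positive control (diphenhydramine for H1, JNJ7777120 for H4, 10 μM).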

[1] = test system: Hartley VAF outbred guinea pigs; test: Allergic conjunctivitis in passively sensitized guinea pigs (conjunctival EPO activity); format: in vivo; set-up: key: +: a 0.01% bid dose was statistically equivalent to dexamethasone with respect to reduction of EPO activity; −: the compound was statistically inferior to dexamethasone and not different than vehicle; settings: 0.01% bid topical, 1 hour prior to and 8 hours after ovalbumin challenge; reduction of conjunctival EPO activity vs dexamethasone

| EC50 (human H4) | EC50 (human H1) | Compound | BID activity [1] |
| --- | --- | --- | --- |
| < 10 µM | > 10 µM | Clc1ccc2nc(N3CCNCC3)c3nncn3c2c1 [Example 57, 8-chloro-4-(piperazin-1-yl)-[1,2,4]triazolo[4,3-a]quinoxaline] | + |
| < 10 µM | > 10 µM | CN1CCN(c2nc3ccc(Cl)cc3n3cnnc23)CC1 [Example 55, 8-chloro-4-(4-methylpiperazin-1-yl)-[1,2,4]triazolo[4,3-a]quinoxaline] | + |
